Measurements taken from patent US20250101003A1, “SPIROCYCLIC CAV2.3 ANTAGONISTS” (LARIO THERAPEUTICS LIMITED, priority 2021, published 2025).

Target: Cav2.3 (Homo sapiens, UniProt Q15878)
Experiment: Human Cav2.3 channel calcium-influx assay
Format: cell-based
Settings: HEK-293 T-Rex/Kir2.1/Cav2.3e-β4-α2δ1 cells, Fluo8 fluorescence, without pluronic acid; read-out: Cav2.3 (pIC50) (converted)
Method: HEK-293 T-Rex cells were transfected with pcDNA3.1-Kir2.1 to generate a stable cell line. After antibiotic selection, the obtained stable pools were analysed using FLIPR^TETRA (membrane potential assay), and a limiting dilution was performed and a HEK-293 T-Rex/Kir2.1 clone was selected. The clone was transfected with pcDNA3.1-Cav2.3e and pBud-Cav-β4-α2δ1 to generate a stable cell line where the Cav2.3e expression is inducible. After antibiotic selection, functional clone pool analysis and two successive limiting dilutions, the final clone underwent a qPCR analysis and a biophysical and pharmacological validation using patch-clamp.
A compound plate, containing 10 test compounds in eight-points dose response with n=4, was prepared. Test compounds dose response curves were prepared in automated fashion in 100% DMSO at CyBio Felix and starting from a stock solution in 100% DMSO; a defined volume was serially moved into destination wells pre-filled with the desired DMSO volume; stock solution concentration volumes were dependent on the final compounds concentrations to be tested and the final DMSO content used in the assay. For the assay test compounds dose response curves ranged from 30 μM and half log dilution with 0.3% final DMSO. In order to obtain the 8-points dose response curve all the concentrations were created by starting from a 10 mM DMSO stock solution and then moving 9.5 μL into a destination well pre-filled with 20.5 μL of 100% DMSO and repeating this step seven times. This initial step was done into 96 MTP plates, 10 compounds/plate. One 384 MTP was then reformatted to contain all the 10 compounds at 8 concentrations, quadruplicate data points. This so obtained 384 MTP compound plate served as source plate in a “mother to child” process with a CyBi®-Well dispenser in which 0.7 μL of compounds were moved into a destination plate pre-filled with 57.6 μL of Tyrode's buffer 0 mM K+, thus obtaining 4× concentrated compounds solution. In columns 1-2 and 23-24 the control wells were added. Both “source” compound plate and “destination” compound plate were barcoded and a relationship between the two plates was thus generated.
The day before the experiment, cells were detached by gentle wash with DPBS, followed by 5 min incubation at 37° C. with Trypsin solution. Detached cells were diluted with OptiMEM+Doxycycline at 0.2 μg/mL, counted and plated in Poly-D-Lysine coated black/clear bottom (15.000 c/well in 20 μl/well) by the use of a MATRIX WellMate dispenser. Plates were placed into a humidified incubator at 37° C. with 5% CO2 until the experimental day. 24 h after seeding 10 μL/well of 1.5× Fluo8 NW dye solution prepared in Tyrode's buffer 0 mM K^+ were added on top of the seeding medium. Cell plates were incubated for 40-60 min at RT in the dark. We then Injected off-line 10 μL/well of test compounds and controls 4× concentrated in Tyrode's Buffer 0 mM K+ with the CyBi®-Well instrument. Cell plates were incubated 3 minutes at RT. Finally, we injected 20 μL/well of 3× concentrated activator solution (K20-Na130-Ca2 buffer: 20 mM KCl, 130 mM NaCl, 2 mM CaCl2, 10 mM HEPES, 10 mM Glucose, final concentrations, prepared starting from “KO-Na150-Ca2” and “K150-Na0-Ca2” buffers) at FDSS7000EX instrument and read emitted fluorescence for 130 seconds.
Data analysis was performed with Genedata Screener® software and reported compounds activity as % effect in relation to the normalization standards. The Kinetic Response Value (KRV) is calculated as follows:
KRV=Maximal fluorescence recorded from second 5 to second 130 minus baseline fluorescence, computed as average from second 1 to second 2, of the kinetic trace. The KRV was normalized versus Neutral Controls and Inhibitor Controls in order to obtain the Activity[%] for each well. […] Therefore, the compound activity values were scaled (based on the two references) to a common range (two-point normalization). […]

Cav2.3, sequence (Q15878 1-747 limits assumed): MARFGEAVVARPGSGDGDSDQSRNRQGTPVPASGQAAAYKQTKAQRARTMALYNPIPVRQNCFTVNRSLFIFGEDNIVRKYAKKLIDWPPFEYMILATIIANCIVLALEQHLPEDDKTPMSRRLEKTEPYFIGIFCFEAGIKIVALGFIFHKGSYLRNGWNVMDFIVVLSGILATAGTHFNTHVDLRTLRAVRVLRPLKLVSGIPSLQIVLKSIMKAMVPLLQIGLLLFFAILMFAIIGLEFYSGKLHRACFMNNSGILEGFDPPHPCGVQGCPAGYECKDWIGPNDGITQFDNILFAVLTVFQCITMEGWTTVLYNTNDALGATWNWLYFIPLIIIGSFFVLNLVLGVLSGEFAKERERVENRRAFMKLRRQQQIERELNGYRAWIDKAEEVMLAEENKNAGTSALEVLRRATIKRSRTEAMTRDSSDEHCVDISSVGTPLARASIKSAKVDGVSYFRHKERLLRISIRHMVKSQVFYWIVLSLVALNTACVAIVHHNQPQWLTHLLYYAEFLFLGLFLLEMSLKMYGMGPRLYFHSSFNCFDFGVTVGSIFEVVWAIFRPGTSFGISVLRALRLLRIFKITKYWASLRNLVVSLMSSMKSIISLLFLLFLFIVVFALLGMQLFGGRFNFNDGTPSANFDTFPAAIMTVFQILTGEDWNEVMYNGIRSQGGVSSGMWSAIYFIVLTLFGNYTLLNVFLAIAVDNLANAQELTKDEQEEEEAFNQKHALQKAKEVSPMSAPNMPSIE
Cav2.3, sequence (Q15878 1126-2313 limits assumed): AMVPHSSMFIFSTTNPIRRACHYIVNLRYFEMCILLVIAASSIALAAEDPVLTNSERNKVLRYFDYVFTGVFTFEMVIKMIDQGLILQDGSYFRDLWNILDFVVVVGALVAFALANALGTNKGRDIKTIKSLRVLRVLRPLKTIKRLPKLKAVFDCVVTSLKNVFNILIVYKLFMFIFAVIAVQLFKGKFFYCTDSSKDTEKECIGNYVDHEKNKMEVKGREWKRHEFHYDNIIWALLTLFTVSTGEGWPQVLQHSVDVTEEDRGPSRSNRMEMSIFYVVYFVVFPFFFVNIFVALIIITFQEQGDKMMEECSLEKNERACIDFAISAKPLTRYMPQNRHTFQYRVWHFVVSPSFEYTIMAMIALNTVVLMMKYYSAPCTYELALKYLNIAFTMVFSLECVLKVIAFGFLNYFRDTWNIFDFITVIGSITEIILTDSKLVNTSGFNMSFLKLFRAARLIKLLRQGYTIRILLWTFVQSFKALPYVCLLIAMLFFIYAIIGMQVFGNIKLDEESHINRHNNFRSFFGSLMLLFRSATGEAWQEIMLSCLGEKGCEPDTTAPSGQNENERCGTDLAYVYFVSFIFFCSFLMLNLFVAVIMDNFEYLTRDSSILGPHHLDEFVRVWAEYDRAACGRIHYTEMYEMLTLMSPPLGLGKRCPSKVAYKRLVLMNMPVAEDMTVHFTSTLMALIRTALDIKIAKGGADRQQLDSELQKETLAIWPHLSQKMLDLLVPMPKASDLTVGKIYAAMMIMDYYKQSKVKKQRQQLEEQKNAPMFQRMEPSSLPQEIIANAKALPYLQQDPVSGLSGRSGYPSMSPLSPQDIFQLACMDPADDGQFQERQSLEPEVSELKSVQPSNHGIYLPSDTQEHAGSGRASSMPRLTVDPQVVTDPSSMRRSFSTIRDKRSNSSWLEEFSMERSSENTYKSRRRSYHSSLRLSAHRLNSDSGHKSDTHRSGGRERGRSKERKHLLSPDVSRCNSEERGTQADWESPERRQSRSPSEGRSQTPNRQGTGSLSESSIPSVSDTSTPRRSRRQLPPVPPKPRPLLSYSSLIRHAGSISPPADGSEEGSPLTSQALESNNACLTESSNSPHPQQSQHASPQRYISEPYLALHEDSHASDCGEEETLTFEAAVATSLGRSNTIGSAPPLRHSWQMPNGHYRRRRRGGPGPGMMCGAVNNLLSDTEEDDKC

Structure (SMILES) | IC50 [µM]
CC1CC2(CCC2)CN1S(=O)(=O)c1ccc(F)s1 (stereo not shown) [Example 110, 6-((5-fluorothiophen-2-yl)sulfonyl)-7-methyl-6-azaspiro[3.4]octane] | 5.01
Cc1nc(C)c(S(=O)(=O)N2CC3(CCC3)CC2C)s1 (stereo not shown) [Example 105, 2,4-Dimethyl-5-((7-methyl-6-azaspiro[3.4]octan-6-yl)sulfonyl)thiazole] | 4.57
CC(=O)Nc1nnc(S(=O)(=O)N2CC3(CCC3)CC2C)s1 (stereo not shown) [Example 40, N-(5-((7-methyl-6-azaspiro[3.4]octan-6-yl)sulfonyl)-1,3,4-thiadiazol-2-yl)acetamide] | 8.32
CC1CC2(CCC2)CN1S(=O)(=O)c1ncccn1 (stereo not shown) [Example 14, 7-Methyl-6-(pyrimidin-2-ylsulfonyl)-6-azaspiro[3.4]octane] | 46.8
Cc1ccc(S(=O)(=O)N2CC3(CCC3)CC2C)s1 (stereo not shown) [Example 76, 7-Methyl-6-((5-methylthiophen-2-yl)sulfonyl)-6-azaspiro[3.4]octane] | 7.94
CC1CC2(CCC2)CN1S(=O)(=O)c1cccs1 (single isomer, unassigned) [Example 103, 7-Methyl-6-(thiophen-2-ylsulfonyl)-6-azaspiro[3.4]octane] | 8.32
COCC1CC2(CCC2)CN1S(=O)(=O)c1cccs1 (stereo not shown) [Example 43, 7-(Methoxymethyl)-6-(thiophen-2-ylsulfonyl)-6-azaspiro[3.4]octane] | 10.2
CC1CC2(CCC2)CN1S(=O)(=O)c1ccc2c(c1)CN(C(=O)C(F)(F)F)CC2 (single isomer, unassigned) [Example 20, 2,2,2-trifluoro-1-(7-((7-methyl-6-azaspiro[3.4]octan-6-yl)sulfonyl)-3,4-dihydroisoquinolin-2(1H)-yl)ethan-1-one] | 4.27
CC1CC2(CCC2)CN1S(=O)(=O)c1ccc2c(c1)CN(C(=O)C(F)(F)F)CC2 (stereo not shown) [Example 18, 2,2,2-Trifluoro-1-(7-((7-methyl-6-azaspiro[3.4]octan-6-yl)sulfonyl)-3,4-dihydroisoquinolin-2(1H)-yl)ethan-1-one] | 2.45
CCC1CC2(CCC2)CN1S(=O)(=O)c1ccc2c(c1)S(=O)(=O)CC2 (stereo not shown) [Example 61, 6-((7-Ethyl-6-azaspiro[3.4]octan-6-yl)sulfonyl)-2,3-dihydrobenzo[b]thiophene 1,1-dioxide] | 1.78
CC1CC2(CCCC2)CN1S(=O)(=O)c1cccs1 (stereo not shown) [Example 73, 3-Methyl-2-(thiophen-2-ylsulfonyl)-2-azaspiro[4.4]nonane] | 1.7
CCC1CC2(CCCC2)CN1S(=O)(=O)c1cccs1 (single isomer, unassigned) [Example 99, 3-ethyl-2-(thiophen-2-ylsulfonyl)-2-azaspiro[4.4]nonane] | 1.91
CC1CC2(CCC2)CN1S(=O)(=O)c1ccc2c(c1)CN(c1ccccc1)CC2 (stereo not shown) [Example 29, 7-((7-Methyl-6-azaspiro[3.4]octan-6-yl)sulfonyl)-2-phenyl-1,2,3,4-tetrahydroisoquinoline] | 4.79
CC1CC2(CCC2)CN1S(=O)(=O)c1ccncc1 (single isomer, unassigned) [Example 12, 7-Methyl-6-(pyridin-4-ylsulfonyl)-6-azaspiro[3.4]octane] | 6.61
CCc1nc2cc(S(=O)(=O)N3CC4(CCC4)CC3CC)ccc2o1 (stereo not shown) [Example 51, 2-Ethyl-5-((7-ethyl-6-azaspiro[3.4]octan-6-yl)sulfonyl)benzo[d]oxazole] | 2.75
CC1CC2(CCC2)CN1S(=O)(=O)c1ccc2c(c1)CCN(Cc1ccccc1)C2 (stereo not shown) [Example 25, 2-Benzyl-6-((7-methyl-6-azaspiro[3.4]octan-6-yl)sulfonyl)-1,2,3,4-tetrahydroisoquinoline] | 2.95
CC1CC2(CCC2)CN1S(=O)(=O)c1cncc(C#N)c1 (stereo not shown) [Example 111, 5-((7-methyl-6-azaspiro[3.4]octan-6-yl)sulfonyl)nicotinonitrile] | 1.95

Structure (SMILES) | IC50 [µM]
CC1CC2(CCC2)CN1S(=O)(=O)c1ccco1 (single isomer, unassigned) [Example 38, 6-(furan-2-ylsulfonyl)-7-methyl-6-azaspiro[3.4]octane] | 3.39
CC1CC2(CCC2)CN1S(=O)(=O)Cc1ccccc1 (stereo not shown) [Example 2, 6-(Benzylsulfonyl)-7-methyl-6-azaspiro[3.4]octane] | 4.27
CC1CC2(CCC2)CN1S(=O)(=O)c1ccc(C#N)s1 (single isomer, unassigned) [Example 9, 5-((7-Methyl-6-azaspiro[3.4]octan-6-yl)sulfonyl)thiophene-2-carbonitrile] | 7.94
CC1CC2(CCC2)CN1S(=O)(=O)c1cc2oc(=O)[nH]c2cc1Cl (single isomer, unassigned) [Example 58, 5-chloro-6-((7-methyl-6-azaspiro[3.4]octan-6-yl)sulfonyl)benzo[d]oxazol-2(3H)-one] | 11.5
Cc1ccc(S(=O)(=O)N2CC3(CCC3)CC2C)o1 (stereo not shown) [Example 53, 7-Methyl-6-((5-methylfuran-2-yl)sulfonyl)-6-azaspiro[3.4]octane] | 4.9
CC1CC2(CCC2)CN1S(=O)(=O)c1ccc(C#N)s1 (single isomer, unassigned) [Example 10, 5-((7-methyl-6-azaspiro[3.4]octan-6-yl)sulfonyl)thiophene-2-carbonitrile] | 2.69
CCOc1cc(S(=O)(=O)N2CC3(CCC3)CC2C)ccn1 (stereo not shown) [Example 88, 6-((2-Ethoxypyridin-4-yl)sulfonyl)-7-methyl-6-azaspiro[3.4]octane] | 2.51
CC1CC2(CCC2)CN1S(=O)(=O)c1ccncc1 (single isomer, unassigned) [Example 13, 7-methyl-6-(pyridin-4-ylsulfonyl)-6-azaspiro[3.4]octane] | 1.66
CC1CC2(CCC2)CN1S(=O)(=O)c1nc2ccccc2s1 (stereo not shown) [Example 67, 2-((7-Methyl-6-azaspiro [3.4]octan-6-yl)sulfonyl)benzo[d]thiazole] | 9.77
CC1CC2(CCC2)CN1S(=O)(=O)c1nccn1C (stereo not shown) [Example 3, 7-Methyl-6-((1-methyl-1H-imidazol-2-yl)sulfonyl)-6-azaspiro[3.4]octane] | 30.2
CC1CC2(CCC2)CN1S(=O)(=O)c1ccc2c(c1)OCCO2 (single isomer, unassigned) [Example 6, 6-((2,3-Dihydrobenzo[b][1,4]dioxin-6-yl)sulfonyl)-7-methyl-6-azaspiro[3.4]octane] | 7.24
CC1CC2(CCN1S(=O)(=O)c1cccs1)CC2 (stereo not shown) [Example 74, 5-Methyl-6-(thiophen-2-ylsulfonyl)-6-azaspiro[2.5]octane] | 6.03
CCC1CC2(CCC2)CN1S(=O)(=O)c1ccc2c(c1)OC(F)(F)O2 (stereo not shown) [Example 50, 6-((2,2-Difluorobenzo[d][1,3]dioxol-5-yl)sulfonyl)-7-ethyl-6-azaspiro[3.4]octane] | 9.33
COc1cc(S(=O)(=O)N2CC3(CCC3)CC2C)ccn1 (stereo not shown) [Example 86, 6-((2-Methoxypyridin-4-yl)sulfonyl)-7-methyl-6-azaspiro[3.4]octane] | 1.35
CCC1CC2(CCC2)CN1S(=O)(=O)c1ccco1 (stereo not shown) [Example 72, 7-Ethyl-6-(furan-2-ylsulfonyl)-6-azaspiro[3.4]octane] | 4.37
Cc1ccc(S(=O)(=O)N2CC3(CCC3)CC2C)o1 (single isomer, unassigned) [Example 54, 7-Methyl-6-((5-methylfuran-2-yl)sulfonyl)-6-azaspiro[3.4]octane] | 8.13
CC1CC2(CCC2)CN1S(=O)(=O)c1ccccc1 (single isomer, unassigned) [Example 46, 7-Methyl-6-(phenylsulfonyl)-6-azaspiro[3.4]octane] | 7.76
